Measured values reported in publication PMC12649575, “Assessment of Polymyxin B with Sodium Deoxycholate Sulfate Micelles in a Rat Model to Combat Polymyxin Nephrotoxicity” (Antibiotics, 2025).

Legend:
male Sprague-Dawley rats [1] = experiment: Serum oxidative stress biomarkers SOD and CAT after 7 days of treatment; type: in vivo; details: rat serum, after 7 days of 6 mg/kg/day s.c., commercial kit, mean ± SD, n = 5; for Serum catalase (CAT) level: control 22.4 ± 3.79; for Serum superoxide dismutase (SOD) level: normal saline 37.36 ± 3.4
Protocol: The serum levels of superoxide dismutase (SOD) and Catalase (CAT) in rats were analyzed to evaluate and compare the oxidative stress induced by the treatments. […] No significant reductions were detected in the serum SOD levels of the SDCS (38 ± 3.17 U/mL) and formulation (34.73 ± 5.17 U/mL) groups. […] The serum CAT levels in the treated rats followed a trend similar to that observed for the SOD levels (Figure 2D).
(§1) The nephrotoxicity experiment of the PMB formulation was performed on 36 male rats that were randomly divided into four groups (n = 9). Randomization was performed using computer-generated random sequences in Microsoft Excel with a fixed seed value to ensure reproducibility. Block randomization was used to balance the number of animals per group. […] The PMB dose of 6 mg/kg/day (expressed as PMB equivalent) was selected based on previous pharmacokinetic and toxicity studies in rats, where this dose consistently produced measurable nephrotoxicity without lethality. […] The average weight gain of each group was recorded for the experiment. We randomized the treatment order and controlled the timing of measurements, and all researchers involved in the study were blinded to the intervention. The animals were euthanized 24 h after the last treatment with an intraperitoneal lethal dose of sodium pentobarbital (200 mg/kg). Blood samples were collected by cardiac puncture, and the serum was separated by centrifugation (3000× g for 15 min) and stored at −80 °C until assayed. Samples of the kidney, liver, spleen, lung, and heart tissues were carefully collected, weighed, and sectioned for histopathological analysis. Histological observation was performed to assess potential tissue damage and evaluate the extent of toxicity following the treatment.
(§2) The serum levels of SOD and CAT were measured after the 7-day treatment period to investigate the oxidative properties of the treatments. The measurements were carried out using commercial kits according to the manufacturer’s instructions.

[2] = tested on: rat kidney, liver, lung and spleen tissue; experiment: Histopathological examination (H&E) of kidney, liver, lung and spleen; type: in vivo; details: 7 days of 6 mg/kg/day s.c., result in words
Protocol: An H&E assay was performed on the collected tissues of all animals to evaluate PMB-induced nephrotoxicity and organ damage. The kidney histopathological results from the H&E assay of the renal cortex and medulla in the treated animals are shown in Figure 3.
Liver histopathological alterations in the central vein area and portal triad area of the treated rats are shown in Figure 4A and Figure 4B, respectively.
Histopathological alterations in the spleen tissue of the treated animals were also examined (Figure 4D).
as §1
Excess fat from the kidney, liver, spleen, lung, and heart tissues was removed through dissection and trimming. All samples were preserved in 10% buffered formalin using a fixative volume at least 10 times the tissue volume for three days. Subsequently, the tissues were dehydrated through a graded series of ethanol (70%, 80%, 95%, and 100%) using a tissue processor (LEICA TP 1020, Leica Microsystems GmbH, Wetzlar, Germany), with each concentration step lasting for 60 min. Following this, the tissues were embedded in Paraplast blocks using a tissue embedder (LEICA EG 1160, Leica Microsystems GmbH, Wetzlar, Germany). Thin sections that measured 5 μm in thickness were obtained using an automatic microtome. The slides were stained with Harris’ hematoxylin and eosin (H&E) and examined under an Olympus DP73 microscope (Olympus, Tokyo, Japan) equipped with cellSens software version 6.1.4.2. Histopathological analysis was performed by an investigator who was blinded to the treatment groups.

rat kidney function = experiment: Kidney function: serum BUN and creatinine after 7 days of treatment; type: in vivo; details: after 7 days of 6 mg/kg/day s.c., autoanalyzer, mean ± SD; for Serum creatinine (Cr): n = 5, normal saline 2.08 ± 1.08; for Serum blood urea nitrogen (BUN): n = 5, normal saline 13.8 ± 1.3
Protocol: After seven days of treatment, the serum levels of blood urea nitrogen (BUN) and Cr were assessed in the rats to investigate their kidney function. […] The PMB group had slightly elevated Cr levels (2.28 ± 0.31 mg/dL) (Figure 2B).
as §1, §2

male Sprague-Dawley rats [3] = experiment: Body weight and body weight gain in the 7-day nephrotoxicity study; type: in vivo; details: rat
Protocol: After seven days of treatment with 6 mg/kg of the PMB and PMB formulation, the weight progression of the rats in each group was measured and recorded. All 36 rats successfully acclimated and reached the target body weight of 110 g within the 7-day period. No animals were excluded from the study. The results in Figure 1A show the weight changes measured on day 0, day 4, and day 7 of administration.
The animal study was approved by the Animal Ethics Committee of Prince of Songkla University (Project License No. MHESI 68014/675, Ref. AR042/2024). The animals were housed in a controlled environment with a temperature of 22 ± 2 °C, relative humidity of 50 ± 10%, and a 12/12-h light/dark cycle. They were provided with a standard laboratory rodent diet and water ad libitum. The study was conducted on male outbred Sprague-Dawley rats (5–7 weeks old, 130–170 g) that were obtained from the National Laboratory Animal Center, Mahidol University, Nakorn Pathom, Thailand. The rats were fed the standard feed protocol by the Southern Laboratory Animal Facility, Faculty of Sciences, Prince of Songkla University. Rats were allowed to acclimate for 7 days prior to the experiment.
as §1, with “Blood samples were collected by cardiac puncture, and the serum was separated by centrifugation (3000× g for 15 min) and stored at −80 °C until assayed. Samples of the kidney, liver, spleen, lung, and heart tissues were carefully collected, weighed, and sectioned for histopathological analysis. Histological observation was performed to assess potential tissue damage and evaluate the extent of toxicity following the treatment.” left out

[4] = cited from earlier work
Excerpt: Nephrotoxicity remains a significant challenge for PMB. The prevalence of nephrotoxicity ranges from 10% to 60% despite the effectiveness of PMB in treating multidrug-resistant Gram-negative bacterial infections. The amphipathic properties of polymyxins are also responsible for their nephrotoxicity where the cationic diaminobutyric acid (Dab) residues of PMB interact with anionic phospholipids (e.g., phosphatidylinositol, cardiolipin) on the membranes of renal tubular cells. This electrostatic interaction, combined with the insertion of the lipophilic tail into the lipid bilayer, dis ... || PMB undergoes extensive reabsorption in the renal tubule, and a very high concentration of PMB is found in human renal tubular cells compared to the extracellular concentration. The increased accumulation of PMB leads to cell swelling and lysis by disrupting the permeability of the renal tubular epithelial cell membrane. In our results, the administration of the PMB formulation increased the serum concentration profile of PMB.

[5] = PMB serum concentration after a single subcutaneous dose (LC-MS); type: in vivo; details: rat, single 6 mg/kg s.c., 4 h post-dose, PMB after protein precipitation, mean ± SD, n = 4
Excerpt: (§3) The serum concentrations reported represent the free (unbound) PMB fraction determined after protein precipitation and filtration, which is the pharmacologically active component.
(§4) For the biodistribution study, a sample size of four rats per group was chosen as a preliminary exploratory analysis to determine major organ distribution trends. This sample size was consistent with previous biodistribution studies involving polymyxins and sufficient to identify statistically meaningful differences in renal accumulation [7]. […] PMB concentrations were measured in LC-MS for free (unbound) fraction of serum and tissue homogenates after protein precipitation.
(§5) The PMB was quantified using an LC-MS/ion trap time-of-flight system (Shimadzu, Tokyo, Japan) equipped with a C18 column (2.1 mm id × 150 mm, 2.7 µm particle size; Thermo Fisher Scientific, Scoresby, Australia). […] A quantity of 400 µL of supernatant was added to 600 µL of the mobile phase. A known amount of standard PMB in blank serum was prepared using the same method to produce a calibration curve of PMB and quantification was performed using colistin sulfate (1 µg/mL) as the internal standard. The monitored mass transitions were m/z 602.4 → 101.1 for PMB and m/z 585.5 → 101.1 for colistin. […]

[6] = PMB biodistribution in organs 24 h after subcutaneous dose (LC-MS); type: in vivo; details: rat, 6 mg/kg s.c., kidney homogenate 24 h post-dose, mean ± SD, n = 4
Excerpt: as §3, §4, §5

With Sodium Deoxycholate sulfate [SDCS] the “Serum catalase (CAT) level” value (male Sprague-Dawley rats [1]) was 22.25 ± 6.38 nmol/min/mL, the “Serum superoxide dismutase (SOD) level” value (male Sprague-Dawley rats [1]) was 38 ± 3.17 U/mL and the “Kidney histopathology (renal cortex and medulla)” value [2] was “normal”. The “Liver histopathology (central vein and portal triad area)” value [2] was “normal hepatic tissues”, the Lung histopathology [2] was “normal lung tissue” and the Spleen histopathology [2] was “normal white and red pulp”. The “Serum creatinine (Cr)” value (rat kidney function) was 2.06 ± 0.32 mg/dL and the “Serum blood urea nitrogen (BUN)” value (rat kidney function) was 14.4 ± 2.07 mg/dL.
With Polymyxin B [PMB] the “Serum catalase (CAT) level” value (male Sprague-Dawley rats [1]) was 9.5 ± 7.91 nmol/min/mL, the “Serum superoxide dismutase (SOD) level” value (male Sprague-Dawley rats [1]) was 22.87 ± 8.1 U/mL and the “Kidney histopathology (renal cortex and medulla)” value [2] was “Deformation of the glomeruli and congestion of the renal blood vessels”. The “Liver histopathology (central vein and portal triad area)” value [2] was “significant monocyte infiltration accompanied by loss of hepatocyte architecture and the presence of necrotic foci around the blood vessels”, the Lung histopathology [2] was “endothelial damage that was evidenced by an increased number of small pulmonary venules containing fibrin thrombi” and the Spleen histopathology [2] was “numerous multinucleated giant cells”. For the same substance, the “Serum creatinine (Cr)” value (rat kidney function) was 2.28 ± 0.31 mg/dL, the “Serum blood urea nitrogen (BUN)” value (rat kidney function) was 16.56 ± 1.59 mg/dL and the “Body weight gain compared with control” value (male Sprague-Dawley rats [3]; 6 mg/kg/day s.c. for 7 days, n = 9, result in words) was “significant reduction in body weight gain”. For the same substance, the “Body weight on day 4” value (male Sprague-Dawley rats [3]; 6 mg/kg/day s.c., day 4 of 7, mean ± SD, n = 9, normal saline group 180.0 ± 11.83 g) was 163.89 ± 15.37 g, the “Body weight on day 7” value (male Sprague-Dawley rats [3]; 6 mg/kg/day s.c., day 7, mean ± SD, n = 9, normal saline group 207.5 ± 11.62 g) was 191.67 ± 15.83 g and the Urinary recovery ([4]; animal models) was under 5%. For the same substance, the “PMB kidney/serum concentration ratio” value ([4]; another study) was 18 fold, the “PMB serum concentration at 4 h” value [5] was 2.94 ± 0.23 µg/mL and the “PMB concentration in the kidneys after 24 h” value [6] was 3.73 ± 0.89 µg/g.
